Patent US20150133341A1, “Intra-Operative Cancer Diagnosis Based on a Hyperpolarized Marker” (ALBEDA INNOVATIONS APS, priority 2012, published 2015)
Marks after values point to notes of the source that are not given here.

How the values were obtained:
[1] = system: human prostate cancer cells (PC-3); test: Metabolism of hyperpolarized substrates in intact human prostate cancer cells; type: cell-based; details: for Metabolic conversion (a.u.) PC-3 cells: 20 million cells, maximum signal of product 1-13C lactate
Protocol: (§1) Human breast cancer cells (MCF-7) and human prostate cancer cells (PC-3) were grown in RPMI medium with 10% FBS and antibiotics. The cells were at confluence harvested by trypsination and washed once with 5 ml PBS. They were spun down and re-dissolved to a concentration of 20 million cells in 500 μl 40 mM phosphate buffer pH 7.3.
(§2) The cell suspensions were transferred to a 10 mm NMR tube and placed with connecting tubing in a 14.1 T magnet at 37 C.
(§3) Finland radical, carboxylic acid form (1 mg, 0.65 μmol) was dissolved in 1,3-^13C2 ethyl acetoacetate (50 μl, 51 mg, […]). To the solution was added a DMSO solution of the gadolinium complex ([alfa1,alfa4,alfa7-tris[(phenylmethoxy)methyl]-1,4,7,10-tetraazacyclododecane-1,4,7,10-tetraacetato(4-)]gadolinate(1-)]hydrogen) (0.8 mg of a 100 μmol/g solution). The concentration of radical and gadolinium were 13 mM and 1.6 mM respectively. 20 μmol of this composition was hyperpolarised under DNP conditions at 1.2 K in a 3.35 T magnetic field under irradiation with microwave (93.900 GHz). The polarization build-up constant was 750 s. The solid-state polarization was approx. 20%.
(§4) The hyperpolarized sample was dissolved in 5 ml phosphate buffer (40 mM, pH 7.3). The pH after dissolution was 7.3. Following dissolution, 1 ml of the substrate mixture was injected into 20 million cells in suspension. A series of 20 degree pulses every 2 s (56 scans in total) was acquired. The acquisition was started just before injection of the hyperpolarized substrate. Data are presented metabolic signal build-up as a function of time and as maximum metabolite signal.
(§5) The cells were grown and harvested or purified as described in example 3.10. The experiments were performed with single substrates administered to 20 million MCF-7 cells, PC-3 cells or lymphocytes dissolved in a volume of 500 μl 40 mM phosphate buffer pH 7.3. The cell suspensions were transferred to a 10 mm NMR tube and placed with connecting tubing in a 14.1 T magnet at 37° C.
(§6) ^13C6-d7-glucose (22.8 mg, 0.118 mmol) was dissolved in polarization medium (25.0 mg). […]

human lymphocytes = test: Metabolism of hyperpolarized substrates in intact human lymphocytes; type: cell-based; details: for Metabolic conversion (a.u.) Lymphocytes: 20 million cells, maximum signal of product 1-13C lactate
Protocol: Human lymphocytes were purified from whole blood. Whole blood samples were drawn from a healthy volunteer into heparinised venous blood collection tubes (Venosafe vacumtubes from Terumo). For each experiment the blood was purified freshly: Three and a half 10 mL tubes of blood were pooled in each of four 50 mL Leucosep (Greiner) tubes prepared with 15 mL Histopaque 1077 (Sigma). The Leucosep tubes were spun for 15 min at 800× g at 24 C. The plasma was removed and the white blood cells were transferred to a 50 mL falcon tube by decanting and diluted 1:2 in PBS-Mg—Ca for a total volume of 50 mL. The cells were sedimented by centrifugation at 250×g for 60 min. Diluting with trypan blue and counting in hemocytometer determined the total number of lymphocytes before sedimentation. All cells were viable and the total number of cells in each cell batch was approx. 60 million. The lymphocytes were redissolved to a concentration of 20 million cells in 500 μl 40 mM phosphate buffer pH 7.3.
as §2, §3, §4, §5, §6

[2] = system: human breast cancer cells (MCF-7); test: Metabolism of hyperpolarized substrates in intact human breast cancer cells; type: cell-based; details: for Metabolic conversion (a.u.) MCF-7 cells: 20 million cells, maximum signal of product 1-13C lactate; for conversion in breast cancer cells over lymphocytes: quantified by cell number
Protocol: as §1, §2, §3, §4, §5
^13C6-d7-glucose (22.8 mg, 0.118 mmol) was dissolved in polarization medium (25.0 mg). The polarization medium was made of Ox063 radical (19.1 mg, 13.3 μmol) was dissolved in 465 μl water. To this solution was added Gadoteridol (40 mg of 50 μmol/g solution in water). Concentrations: [Ox063]=26.5 mM, [Gd]=4 mM. The total weight of the glucose preparation was: 47.8 mg yielding 2.47 mmol glucose/g preparation.
1-^13C pyruvic acid (55 μl, 70.0 mg) was mixed with Finland radical, sodium salt (1.5 mg, 0.94 μmol) and Gadoteridol (2.1 mg of 50 μmol/g solution in water). Concentrations of radical and Gadolinium were: 17 mM; 2 mM.
20 μmol of either substrate was polarized in a 3.3 T polarizer operating at […] and approx. 1.2 K. Following 45 minutes polarization the samples were dissolved in 5 ml 40 mM phosphate buffer pH 7.3. In the experiments with pyruvic acid an equimolar addition of NaOH was added to neutralize the acid. 2 ml of the dissolved substrate mixture was injected into the cells in suspension. A series of 20 degree pulses every 2 s (56 scans in total) was acquired. The acquisition was started just before injection of the hyperpolarized substrate. Data are presented as maximum metabolite signals, hyperpolarized 1-^13C lactate produced from either glucose or pyruvate.

[3] = system: breast cancer cells (MCF-7) in the background of human lymphocytes; test: Co-polarized substrates in model voxels of breast cancer cells in lymphocyte background; type: cell-based; details: for Metabolic conversion (a.u) 50% cancer cells: 1 million MCF-7 cells and 20 million lymphocytes; for Metabolic conversion (a.u) 100% cancer cells: 2 million MCF-7 cells, 2x2x2 voxel model; for Metabolic conversion (a.u) 0% cancer cells: 40 million lymphocytes
Excerpt: The real time metabolism of breast cancer cells was compared with the metabolism of the lymph node background in model systems containing either only cancer cells (100% cancer), only lymphocytes (0% cancer) or a combination of the two cell types (50% cancer) in cellular concentrations expected to be present in a spatially resolved lymph node containing a macro metastasis. In the clinic, the interest is focused on macro metastasis since these are statistically those, which indicate aggressive cancers (P. Blumencranz, Surg Oncol Clin N Am 20 (2011) 467-485).
The model system was designed assuming a macro metastasis, which is defined to have a minimum diameter of 2 mm (P J. Diest et al., (2010) Breast disease 31: 65-81). In a 2×2×2 mm voxel, 50% of the volume will be cancer cells assuming that the macro metastasis is shaped as a sphere. Three experimental systems were established and carried out: 1) 2 million MCF-7 cells (corresponding to 100% cancer cells in a 2×2×2 voxel), 2) 1 million MCF-7 cells and 20 million lymphocytes (corresponding to 50% cancer cells in a 2×2×2 voxel) and 3) 40 million lymphocytes (corresponding to 0% cancer cells in a 2×2×2 voxel). The cells were grown and harvested or purified as described in example 3.10. The DNP preparations of 1-^13C-pyruvate and 1,3-^13C2-ethyl acetoacetate were made as described in examples 3.10. and 3.11. The substrates (20 μmol each) were co-polarized. The polarization, dissolution and administration to the cells were made as in example 3.11.

[4] = system: breast cancer cells (MDA-MB-231); test: In cell 13C-NMR detection of 1,4-13C2-malate using 1,4-13C2-fumarate as hyperpolarized marker; type: cell-based, human; details: 5 million cells; 30 s; normalized to soluble protein; vs 184B5; FIG. 2
Protocol: Step 1: 1,4-^13C2 Fumaric acid (274 mg, 2.32 mmol) was dissolved in a DMSO solution (1660 μl) of trityl radical (Tris(8-carboxy-2,2,6,6-(tetra(methoxyethyl)-benzo-[1,2-4,5′]-bis-(1,3)-dithiole-4-yl)-methyl sodium salt) (19 mM) and gadolinium trimeric complex (Gadolinium chelate of 1,3,5-tris-(N-(DO3A-acetmido)-N-methyl-4-amino-2-methylphenyl)-[1,3,5]triazinane-2,4,6-trione)) (0.8 mM). A sample of this solution (32.5 mg) was hyperpolarized for 60 minutes, at 93.900 GHz and 1.3 K. The sample was dissolved in phosphate buffer (4 ml, pH 7.3, 40 mM) with addition of sodium hydroxide (22 μl, 12M) to neutralize the acid in the hyperpolarized sample.
Step 2: 100 μl of hyperpolarized sodium 1,4-^13C2-fumarate from step 1 was mixed into 500 μl RPMI medium containing 5 million breast cancer cells (MDA-MB-231, human epithelial breast cancer cell line) in a 5 mm NMR tube and placed in a 9.4 T NMR magnet. Signals of 1,4-^13C-malate were detected by acquiring a set of ^13C-MR spectra every 2 s with a 15 degree RF pulse. The amount of 1,4-^13C-malate was calculated 30 s after mixing the hyperpolarized sodium 1,4-^13C2-fumarate into the medium containing cells. Further, the amount of soluble protein in the MDA-MB-231 cells was determined, and the amount of 1,4-^13C-malate was normalized to the protein amount. […]

[5] = system: prostate cancer cells (PC-3); test: In cell 13C-NMR detection of 1-13C-lactate using 1-13C-pyruvate as hyperpolarized marker; type: cell-based, human; details: 5 million cells; PC-3 vs PNT-1A; FIG. 1
Protocol: Step 1: 1-^13C pyruvic acid (1286 mg, 14.4 mmol) was mixed with 25 mg of trityl radical (Tris(8-carboxy-2,2,6,6-(tetra(methoxyethyl)-benzo-[1,2-4,5′]-bis-(1,3)-dithiole-4-yl)-methyl sodium salt) (15 mM) and gadolinium trimeric complex (Gadolinium chelate of 1,3,5-tris-(N-(DO3A-acetmido)-N-methyl-4-amino-2-methylphenyl)-[1,3,5]triazinane-2,4,6-trione)) (0.6 mM). A sample of this solution (9.2 mg) was hyperpolarized for 60 minutes, at 93.900 GHz and 1.3 K. The sample was dissolved in phosphate buffer (4 ml, pH 7.3, 40 mM) with addition of sodium hydroxide (11 μl, 12M) to neutralize the acid in the hyperpolarized sample. The hyperpolarized solution was further diluted with tempered (37° C.) buffer to 30 ml.
Step 2: 500 μl of hyperpolarized sodium 1-^13C-pyruvate from step 1 was mixed into 5 million prostate cancer cells (PC-3, human prostate cell adenocarcinoma) in a 10 mm NMR tube and placed in a 9.4 T NMR magnet. Signals of 1-^13C-pyruvate and 1-^13C-lactate were detected by acquiring a set of ^13C-MR spectra every 3 s with a 15 degree RF pulse and the signal from 1-^13C-lactate was quantified.
Using an identical protocol as outlined above, a second study was performed in healthy prostate cells (PNT-1A, immortalized healthy prostate cells).

| SMILES | hydrolysis to 1,3-13C2 acetoacetate ([1]; 20 million intact PC-3 cells, FIG. 4) | hydrolysis to 1,3-13C2 acetoacetate (human lymphocytes; 20 million intact lymphocytes, FIG. 4) | metabolic conversion, healthy lymphocytes over cancer cells (human lymphocytes; cancer cells quantified by limit-of-detection) | hydrolysis to 1,3-13C2 acetoacetate ([2]; 20 million intact MCF-7 cells, FIG. 4) | Metabolic conversion (a.u) 50% cancer cells [3] | Metabolic conversion (a.u) 100% cancer cells [3] | Metabolic conversion (a.u) 0% cancer cells [3] | concentration of 1,4-13C-malate in MDA-MB-231 cells compared to healthy breast cells [4] | Metabolic conversion (a.u.) PC-3 cells [1] | Metabolic conversion (a.u.) Lymphocytes (human lymphocytes) | 1-13C-lactate signal in PC-3 cells compared to non-cancerous prostate cells [5] | Metabolic conversion (a.u.) MCF-7 cells [2] | conversion in breast cancer cells over lymphocytes [2] |
| --- | --- | --- | --- | --- | --- | --- | --- | --- | --- | --- | --- | --- | --- |
| CCO[13C](=O)C[13C](C)=O [1,3-^13C2 ethyl acetoacetate] | no conversion can be detected | hydrolysed | approx. 33 times | no conversion can be detected | 632 a.u. | < 14* a.u. | 1027 a.u. |  |  |  |  |  |  |
| O=[13C](O)/C=C/[13C](=O)O [1,4-^13C2-fumarate] |  |  |  |  |  |  |  | significantly higher |  |  |  |  |  |
| CC(=O)[13C](=O)O [1-^13C-pyruvate] |  |  |  |  | 1853 a.u. | 337 a.u. | 2620 a.u. |  | 200 a.u. | 40 a.u. | increased | 1000 a.u. | 50 times |
| OC[C@H]1OC(O)[C@H](O)[C@@H](O)[C@@H]1O (some centres unmarked) [^13C6-d7-glucose] |  |  |  |  |  |  |  |  | 200 a.u. | 10 a.u. |  | 500 a.u. | 50 times |
